This note sets out measurements from PubChem BioAssay (NCI).

Test systems include MDA-MB-435; NCI-H23 lung; SN12C renal; SF-539 CNS; IGROV1 ovarian; UACC-257 melanoma; A549 NSCLC; CCRF-CEM leukemia; SF-295 CNS; COLO 205 colon.
What all share (assay): DTP human tumour cell line panel, 48 h

Where “and” joins values, the source holds several entries; their conditions need not be identical. Equal values may be shown once.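 Cultured in 96-well plates, cells were exposed to test compound for 48 hours across five concentrations. Here, GI50 denotes the concentration required for 50% inhibition of growth. At the TGI there is no net growth.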

For the compound `O=C(/C=C/c1cccc(Oc2ccc(Cl)cc2)c1)c1ccccc1`, the GI50 with MDA-MB-435 was 21.9 µM; in the assay on NCI-H23 lung, 80.7 µM; in the assay with SN12C renal, 28.4 µM; in the assay with SF-539 CNS, 21.3 µM; with IGROV1 ovarian it was 28.1 µM; in the assay on UACC-257 melanoma, 185 µM. Besides, the GI50 is 138 µM in the assay with A549 NSCLC, 31.6 µM in the assay with CCRF-CEM leukemia, 60 µM in the assay with SF-295 CNS and 63.4 µM in the assay on COLO 205 colon. Besides, the TGI came to 50.9 µM with MDA-MB-435; 266 µM in the assay on NCI-H23 lung; 78.4 µM in the assay with SN12C renal; 53.2 µM with SF-539 CNS; 101 µM in the assay on IGROV1 ovarian; 344 µM with UACC-257 melanoma. Further, the TGI with A549 NSCLC worked out at 298 µM; in the assay on CCRF-CEM leukemia it was 384 µM; in the assay on SF-295 CNS it was 196 µM; in the assay with COLO 205 colon, 283 µM.
In the case of `CC/C(=C(/c1ccc(/C=C/C(=O)O)cc1)c1ccc2[nH]ncc2c1)c1ccc(F)cc1Cl`, the GI50 in the assay with MDA-MB-435 is 2.76 µM; in the assay on NCI-H23 lung, 15.4 µM; in the assay with SN12C renal it was 14.7 µM; in the assay with SF-539 CNS, 7.84 µM; in the assay with IGROV1 ovarian it was 15.8 µM; in the assay on UACC-257 melanoma it was 17.4 µM. The GI50 with A549 NSCLC was 8.58 µM; in the assay on CCRF-CEM leukemia it was 8.37 µM; in the assay with SF-295 CNS it was 7.81 µM; with COLO 205 colon, 15.5 µM. For the same compound, the TGI in the assay with MDA-MB-435 turned out to be 8.38 µM; with NCI-H23 lung, 37.8 µM; in the assay with SN12C renal, 44.6 µM; in the assay on SF-539 CNS, 21.6 µM; in the assay on IGROV1 ovarian, 40 µM; in the assay on UACC-257 melanoma it was 43.2 µM. The TGI was found to be 25.1 µM in the assay on A549 NSCLC, 30.7 µM in the assay on CCRF-CEM leukemia, 21.1 µM with SF-295 CNS and 35.3 µM with COLO 205 colon.
As to `N=C(N)c1ccc(OCCCCCOc2ccc(C(=N)N)cc2)cc1`, the GI50 with MDA-MB-435 is 3.99 µM; with NCI-H23 lung it was 3.34 µM; in the assay with SN12C renal, 2.02 µM; in the assay on SF-539 CNS, 8.36 µM; in the assay on IGROV1 ovarian, 10.2 µM and 13 µM and 35.5 µM; with UACC-257 melanoma, 4.44 µM and 7.51 µM and 15.5 µM. In addition, the GI50 was 0.83 µM in the assay with A549 NSCLC; 23.7 µM and 11.1 µM and 45.1 µM with CCRF-CEM leukemia; 2.18 µM and 5.19 µM and 11.9 µM in the assay with COLO 205 colon. Besides, the TGI in the assay with MDA-MB-435 was 13.4 µM and 23.2 µM and 42.9 µM; in the assay with NCI-H23 lung, > 50 µM and 25.4 µM and 29 µM; in the assay with SN12C renal it was 34.2 µM and 25 µM and 24.7 µM; in the assay on SF-539 CNS it was 20.7 µM and 27.1 µM; in the assay on IGROV1 ovarian, > 50 µM and 27 µM and > 100 µM; with UACC-257 melanoma it was 26.3 µM and 23.7 µM and 48.9 µM. The TGI was > 50 µM and 37.1 µM and > 100 µM with A549 NSCLC; > 50 µM and 60.1 µM and > 100 µM in the assay with CCRF-CEM leukemia; 19.7 µM and 21.3 µM and 77.1 µM in the assay with SF-295 CNS; 8.57 µM and 18.4 µM and 29.1 µM in the assay on COLO 205 colon.
With `CC1=NN(c2nc(N)nc(/C=C\c3ccccc3)n2)C(C)(C)C1`, the GI50 is 1.97 µM in the assay on MDA-MB-435; 4.37 µM in the assay with NCI-H23 lung; 13.1 µM with SN12C renal; 6.25 µM in the assay with SF-539 CNS; 8.99 µM in the assay with IGROV1 ovarian; 5.73 µM in the assay with UACC-257 melanoma. Also, the GI50 was 15.8 µM in the assay on A549 NSCLC, 2.99 µM in the assay with CCRF-CEM leukemia, 11.7 µM in the assay on SF-295 CNS and 2.84 µM in the assay with COLO 205 colon. Also, the TGI in the assay on MDA-MB-435 was found to be 7.13 µM; with NCI-H23 lung, 18 µM; in the assay with SN12C renal it was 26.6 µM; in the assay on SF-539 CNS it was 22.4 µM; in the assay with IGROV1 ovarian, 24 µM; in the assay on UACC-257 melanoma, 20.1 µM. The TGI with A549 NSCLC was determined as 38.3 µM; with CCRF-CEM leukemia, 34.7 µM; with SF-295 CNS it was 30.5 µM; in the assay on COLO 205 colon it was 14 µM.
Regarding `CC(C)C/C(=N\NC(=O)c1ccncc1)c1cc(Cl)ccc1O`, the GI50 is 0.682 µM with MDA-MB-435; 0.449 µM in the assay with NCI-H23 lung; 0.619 µM with SN12C renal; 0.363 µM in the assay with SF-539 CNS; 0.224 µM in the assay with IGROV1 ovarian; 0.41 µM with UACC-257 melanoma. The GI50 in the assay on A549 NSCLC is 0.498 µM; with CCRF-CEM leukemia, 0.0864 µM; in the assay on SF-295 CNS, 0.256 µM; in the assay with COLO 205 colon, 0.354 µM. Moreover, the TGI with MDA-MB-435 is 44.9 µM; in the assay on NCI-H23 lung it was 33.5 µM; with SN12C renal it was more than 52.5 µM; in the assay on SF-539 CNS, 5.58 µM; in the assay with IGROV1 ovarian, 17.3 µM; in the assay on UACC-257 melanoma, 6.62 µM. Also, the TGI is more than 42.6 µM in the assay on A549 NSCLC, more than 58.5 µM in the assay on CCRF-CEM leukemia, 13.2 µM with SF-295 CNS and 14.4 µM in the assay on COLO 205 colon.
`CCN(CC)CCS(=O)(=O)CCNc1ccnc2cc(Cl)ccc12`: the GI50 in the assay on MDA-MB-435 is 1.65 µM; with NCI-H23 lung it was 2.1 µM; in the assay on SN12C renal, 3.25 µM; with SF-539 CNS, 2.93 µM; with IGROV1 ovarian, 2.26 µM; in the assay on UACC-257 melanoma it was 5.13 µM. In addition, the GI50 in the assay with A549 NSCLC was 4.12 µM; with CCRF-CEM leukemia it was 0.663 µM; in the assay with SF-295 CNS, 8.38 µM; in the assay on COLO 205 colon it was 2.66 µM. The TGI in the assay on MDA-MB-435 was more than 20.5 µM; in the assay on NCI-H23 lung, 14.9 µM; in the assay with SN12C renal it was more than 100 µM; in the assay with SF-539 CNS, 14.3 µM; in the assay with IGROV1 ovarian it was 16.7 µM; with UACC-257 melanoma, 26.1 µM. Also, the TGI in the assay with A549 NSCLC was more than 61.7 µM; in the assay with CCRF-CEM leukemia, more than 38.6 µM; in the assay on SF-295 CNS it was more than 64 µM; in the assay on COLO 205 colon it was 8.31 µM.
With `Nc1n[nH]c2ccc([C@@H]3Nc4c(F)cc5[nH]ncc5c4[C@H]4C5CCC(C5)[C@@H]34)cc12` (some centres undefined), the concentration for 50% growth inhibition (GI50) in the assay on MDA-MB-435 was 0.0327 µM; in the assay with NCI-H23 lung it was 0.46 µM; with SN12C renal, 0.544 µM; in the assay on SF-539 CNS it was 0.157 µM; in the assay with IGROV1 ovarian, 0.391 µM; with UACC-257 melanoma, 7.78 µM. The GI50 in the assay on A549 NSCLC is 0.352 µM; with CCRF-CEM leukemia, 0.332 µM; in the assay on SF-295 CNS, 0.11 µM; in the assay with COLO 205 colon it was 0.337 µM. Further, the TGI was 0.161 µM in the assay on MDA-MB-435; 21.8 µM with NCI-H23 lung; more than 54.9 µM in the assay on SN12C renal; 0.598 µM with SF-539 CNS; more than 46.2 µM in the assay on IGROV1 ovarian; more than 79.3 µM in the assay on UACC-257 melanoma. Besides, the TGI was more than 100 µM in the assay on A549 NSCLC, more than 52.1 µM in the assay on CCRF-CEM leukemia, 18.4 µM with SF-295 CNS and 1.67 µM in the assay on COLO 205 colon.
For `O=[N+]([O-])c1ccc(/C=C\c2ccc3c(c2)OCO3)c([N+](=O)[O-])c1`, the TGI with MDA-MB-435 turned out to be 22.1 µM; in the assay with NCI-H23 lung it was 48.6 µM; with SN12C renal, 34 µM; in the assay with SF-539 CNS it was 39.1 µM; in the assay with IGROV1 ovarian, 24.7 µM; in the assay with UACC-257 melanoma, 32 µM. The TGI is 73.8 µM in the assay on A549 NSCLC, 33.7 µM in the assay with CCRF-CEM leukemia, 59.1 µM with SF-295 CNS and 32.3 µM in the assay with COLO 205 colon.

In general, GI50 refers to the concentration giving 50% growth inhibition. A word on the TGI: it is the concentration giving total growth inhibition. A low value points to greater sensitivity of the cells.
